From patent publication US11332756B2, “RNA virus vectors carrying DAI and RIPK3” (Institute For Cancer Research, priority 2016, dated 2022) come the findings set out here.

*1 amine or outer side, *2 acyl side, *3 side chain or, on linkers, in order; H or OH if unused. Where a SMILES comes first, the peptide text is derived from it. Bridges are numbered along the chain shown (N, C = ends). Roman numbers before positions name the chains, in order. [ ]: non-standard residue; d: D form. The star is where a group is joined. Actinocin(9to1) = Cc1c2oc3c(C)ccc(C(=O)[*:1])c3nc-2c(C(=O)[*:2])c(N)c1=O; NMeV = CN[C@H](C(=O)O)C(C)C; Cbz = O=C(OCc1ccccc1)*; Sar = CNCC(=O)O; CH2F = FC*

Assay [1] addresses T1, RIPK3-RIPK1 necrosome (Mus musculus, UniProt Q9QZL0).
T1 construct: RIPK3 was immunoprecipitated from lysates of PR8-infected MEFs; endogenous in cells; host or cells: wild-type mouse embryo fibroblasts (MEFs)
As to the kind of experiment: IAV-induced RIPK3-RIPK1 necrosome formation (RIPK3 immunoprecipitation) in MEFs. In kind it is cell-based, murine. The following applies: for IAV (PR8)-induced RIPK3-RIPK1 necrosome / complex formation: PR8-infected MEFs, cells pre-treated with agent, RIPK3 immunoprecipitation. The text has this:
(§1) IAV replication results in assembly of a RIPK3 complex containing RIPK1, FADD and MLKL. A molecular feature of RIPK3 dependent cell death is the stimulus-driven formation of a molecular complex called the necrosome, comprising as its core phosphorylated forms of RIPK3 and RIPK1, together with FADD and MLKL. From the necrosome, RIPK3 can activate both necroptosis and apoptosis, depending on target availability or RIPK3 activity. To test if IAV induced formation of a necrosome, RIPK3 was immunoprecipitated from lysates of PR8-infected MEFs, and immunoprecipitates were examined for the presence of slower-mobility forms of phosphorylated RIPK1. PR8 activated necrosome formation to a significant extent, as did the combination of PR8+zVAD (see, FIG. 4A, left and middle panels). Like TNF-α (see, FIG. 4A, right panels), IAV infection also drove the recruitment of FADD and MLKL into the RIPK3-RIPK1 necrosome.

The test system of assay [2] is wild-type MEFs infected with PR8. The class given is cell-based, murine.
The subject of assay [3] is mlkl−/− MEFs infected with PR8. The class given is cell-based, murine.
A further assay concerns IAV (PR8). In kind it is cell-based, Influenza A virus.
Assay [4] concerns ripk3−/− MEFs infected with PR8. In kind it is cell-based, murine.
The test system of assay [5] is MLKL phosphorylation and cleavage of caspase 8. As to the kind of experiment: Immunoblot of phosphorylated MLKL and cleaved caspase 8 in PR8-infected MEFs. In kind it is cell-based, murine. The following applies: wild-type MEFs, zVAD 50 μM.
The test system of assay [6] is apoptosis activated by TRAIL and cycloheximide in MEFs. The assay is described as follows: Apoptosis induced by TRAIL and cycloheximide. The class given is cell-based, murine. The following applies: TRAIL 2 μg/ml + CHX 250 ng/ml; anti-TRAIL-R2 10 μg/ml; zVAD same dose as in PR8 test.
In assay [7] the target is T1, RIPK3-RIPK1 necrosome. The assay is described as follows: TNF-α-induced necrosome assembly in MEFs. In kind it is cell-based, murine. The following applies: same doses as in PR8 experiment; not shown.
From the text: as §1

Assay [8] deals with ripk1−/− MEFs infected with PR8. In kind it is cell-based, murine.
Assay [9] relates to TCZ-treated wild-type MEFs. The class given is cell-based, murine.

T1 sequence (Q9QZL0 whole entry): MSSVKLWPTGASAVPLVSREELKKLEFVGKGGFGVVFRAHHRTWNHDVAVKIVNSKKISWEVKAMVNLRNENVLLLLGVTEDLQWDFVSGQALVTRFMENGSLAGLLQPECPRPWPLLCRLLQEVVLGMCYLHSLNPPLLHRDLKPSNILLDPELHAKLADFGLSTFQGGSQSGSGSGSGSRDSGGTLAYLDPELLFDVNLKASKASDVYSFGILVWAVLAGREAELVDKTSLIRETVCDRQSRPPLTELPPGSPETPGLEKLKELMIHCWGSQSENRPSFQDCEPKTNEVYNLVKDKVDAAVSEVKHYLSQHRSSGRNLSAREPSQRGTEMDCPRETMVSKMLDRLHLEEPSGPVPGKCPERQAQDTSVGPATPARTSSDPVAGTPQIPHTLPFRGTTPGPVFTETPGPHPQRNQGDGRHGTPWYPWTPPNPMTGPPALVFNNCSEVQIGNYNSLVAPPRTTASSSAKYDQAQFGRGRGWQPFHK

On to `CC(C)(C)C(=O)N1N=CC[C@H]1c1ccccc1` [GSK'963], for which, at RIPK3-RIPK1 necrosome [1], the “IAV (PR8)-induced RIPK3-RIPK1 necrosome / complex formation” value is given as “inability of these agents to prevent IAV-driven necrosome formation”. For the same molecule, the “protection of viability after PR8 infection, inhibitor alone” value (“protection of viability … inhibitor alone” for short) in [2] is “did not have any discernible protective effect”.
Regarding `CC[C@H](C)[C@H](NC(=O)OCc1ccccc1)C(=O)N[C@@H](CCC(=O)OC)C(=O)N[C@H](C(=O)N[C@@H](CC(=O)OC)C(=O)CF)[C@@H](C)O` [zIETD, zIETD.fmk] (Cbz-IE(OMe)TD(OMe)-CH2F), in [3], the “protection against PR8 compared with zVAD” value was “less protection against PR8 than zVAD” and the “rescue from PR8-induced cell death in mlkl−/− MEFs” value is listed as “significant protection”.
For `Cc1onc(-c2ccccc2)c1C(=O)N1CCN(c2ccc([N+](=O)[O-])cc2Cl)CC1` [nucleozin], the viral replication result in the assay with IAV (PR8) is on record as “abrogated viral replication”. Also, the “IAV (PR8)-induced RIPK3-RIPK1 necrosome / complex formation” value on RIPK3-RIPK1 necrosome [1] is reported as “potently blocked”.
As to `COC(=O)C[C@H](NC(=O)[C@H](C)NC(=O)[C@@H](NC(=O)OCc1ccccc1)C(C)C)C(=O)CF` [zVAD, zVAD.fmk] (Cbz-Val-Ala-Asp(OMe)-CH2F), in assay [4], the “viability of PR8-infected ripk3−/− MEFs” value is “remained mostly alive”. The “rescue from PR8-induced cell death in mlkl−/− MEFs” value in assay [3] was “fully rescued”. Besides, the “IAV-induced cleavage of caspase 8” value in [5] is “inhibited”. Besides, the “protection against apoptosis induced by TRAIL and cycloheximide” value in [6] is given as “prevented apoptosis”. On RIPK3-RIPK1 necrosome [1] (zVAD alone, 25 μM, no virus), the “necrosome formation induced by the agent alone” value was “did not induce detectable necrosome formation”. In assay [2], the “protection of viability … inhibitor alone” value is listed as “did not protect”.
Regarding `Cc1c2oc3c(C)ccc(C(=O)N[C@@H]4C(=O)N[C@H](C(C)C)C(=O)N5CCC[C@H]5C(=O)N(C)CC(=O)N(C)[C@@H](C(C)C)C(=O)O[C@@H]4C)c3nc-2c(C(=O)N[C@@H]2C(=O)N[C@H](C(C)C)C(=O)N3CCC[C@H]3C(=O)N(C)CC(=O)N(C)[C@@H](C(C)C)C(=O)O[C@@H]2C)c(N)c1=O` [ActD, Actinomycin D] (I: T[dV]P[Sar][NMeV] / II: T[dV]P[Sar][NMeV]; ester I:1-I:C, II:1-II:C; linker I:N-II:N via Actinocin(9to1)), the viral replication entry in the assay on IAV (PR8) is “effectively prevented”. Moreover, at RIPK3-RIPK1 necrosome [7], the “effect on TNF-α-induced necrosome assembly” value was “Neither ActD nor CHX at these doses affected”. Moreover, the “IAV (PR8)-induced RIPK3-RIPK1 necrosome / complex formation” value at RIPK3-RIPK1 necrosome [1] was “effectively prevented”.
Take `CN1C(=O)[C@@H](NC(=O)c2cc(Cc3ccccc3)on2)COc2ccccc21` [GSK'481]: the “IAV (PR8)-induced RIPK3-RIPK1 necrosome / complex formation” value at RIPK3-RIPK1 necrosome [1] is on record as “inability of these agents to prevent IAV-driven necrosome formation”. Also, the “protection of viability … inhibitor alone” value in assay [2] is given as “did not have any discernible protective effect”.
Regarding `C[C@@H]1C[C@@H]([C@H](O)CC2CC(=O)NC(=O)C2)C(=O)[C@@H](C)C1` [CHX, cycloheximide], the viral replication result with IAV (PR8) was “effectively prevented”. Besides, the “effect on TNF-α-induced necrosome assembly” value at RIPK3-RIPK1 necrosome [7] is “Neither ActD nor CHX at these doses affected”. In addition, the “IAV (PR8)-induced RIPK3-RIPK1 necrosome / complex formation” value on RIPK3-RIPK1 necrosome [1] is reported as “effectively prevented”.
For `Cc1cc(-c2cnc(N)c3c(-c4ccc5scnc5c4)csc23)n(C)n1` [GSK'843], in assay [8], the “protection from PR8-induced cell death in ripk1−/− MEFs” value is on record as “almost-fully protected”. The “protection against TNF-α-induced necroptosis / cell death” value in [9] is “fully protective”. Besides, the “IAV (PR8)-induced RIPK3-RIPK1 necrosome / complex formation” value at RIPK3-RIPK1 necrosome [1] is “blocked PR8-induced necrosome assembly”. Further, in assay [2], the “protection of viability … inhibitor alone” value is given as “failed to prevent PR8-induced cell death”.
As for `CC(C)S(=O)(=O)c1ccc2nccc(Nc3ccc4scnc4c3)c2c1` [GSK'872], in assay [8], the “protection from PR8-induced cell death in ripk1−/− MEFs” value is “almost-fully protected”. The “protection against TNF-α-induced necroptosis / cell death” value in assay [9] is recorded as “fully protective”. Moreover, the “IAV (PR8)-induced RIPK3-RIPK1 necrosome / complex formation” value on RIPK3-RIPK1 necrosome [1] is on record as “blocked PR8-induced necrosome assembly”. In addition, in [2], the “protection of viability … inhibitor alone” value is on record as “failed to prevent PR8-induced cell death”.
Regarding `CN1C(=O)C(Cc2c[nH]c3ccccc23)NC1=S` (stereo not drawn) [Nec-1, Necrostatin 1], the “IAV (PR8)-induced RIPK3-RIPK1 necrosome / complex formation” value at RIPK3-RIPK1 necrosome [1] was “inability of these agents to prevent IAV-driven necrosome formation”. The “protection of viability … inhibitor alone” value in [2] was “did not have any discernible protective effect”.
